Data published in patent EP1285920A1, “C10 Ester sustituted taxanes as antitumor agents” (Florida State University Research Foundation, Inc., priority 2001, dated 2003).
Marks after values point to notes of the source that are not given here.

What was measured:
HCT116 carcinoma = settings: number of 5 mice; i.v. qd x 1 at MTD, Day 60; mg/kg: Taxol 36 (split doses), 0503 72.6, 0536 49, 0663 159, 0670 123, 0687 159, 0706 108, 0908 159, 0947 76.9, 0951 72.6, 0983 72.6, 0999 49, 1003 49, 1011 108
Method in brief: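 Mice bearing HCT116 tumours received a single i.v. maximum tolerated dose per compound, formulated in 5% ethanol, 5% Cremophor, 90% isotonic saline. Study ended on Day 60; complete response meant no palpable tumour at study end.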

SKMES lung carcinoma = assay: In vivo evaluation of oral administration against SKMES human lung carcinoma xenograft (Example 21); settings: number of mice, single oral bolus Day 1, mg/kg: Taxol 40, 0687 228, 0503 73, 6 mice/group
Procedure: Female Nu/Nu mice (6-8 weeks of age; implanted with 1 mm^3 SKMES lung carcinoma fragments in the flank) were sorted into treatment groups of six mice each. […] Treatments were administered as a single oral bolus on Day 1, and the study was terminated on Day 60.
A complete response is obtained if the tumor is not palpable at the end of the study.
The total response rate is defined as the percentage of evaluable animals (excluding deaths due to procedure or toxicity) in a group that experience complete or partial responses at the termination of the study.

MX-1 carcinoma = settings: number of 6 mice; i.v. qd x 1 at MTD, Day 60; mg/kg: Taxol 36 (split dose), 0503 72.6, 0536 49, 0663 159, 0670 123, 0687 159, 0706 108, 0908 159, 0947 76.9, 0951 72.6, 0983 67.4, 0999 49, 1003 49, 1011 108
Method in brief: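 Mice dosed with a single i.v. bolus (qd x 1) at each compound's MTD, formulated in 5% ethanol, 5% Cremophor, 90% isotonic saline. Study ended Day 60; complete response = tumor not palpable at study end.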

A2780 ovarian carcinoma = settings: number of mice; i.v. qd x 1 at estimated MTD (Taxol 24 mg/kg, Taxotere 70 mg/kg, 0983 72.6 mg/kg); 5 mice/group (Taxotere 6)
Procedure: Dosing was initiated on Day 1. […] Taxotere was given i.v. on a qd x 1 schedule at a dose of 70 mg/kg. […] The study was terminated on Day 60. Treatment groups are detailed in Table 7.

[1] = test system: MX-1 human breast carcinoma; assay type: in vivo
Procedure: (§1) Antitumor compounds were administered orally in a study to investigate whether such a formulation is efficacious against the MX-1 human breast carcinoma xenograft. Antitumor compound 0499 was formulated as Solution 1 in Example 6. Antitumor compound 0550 was formulated as Solution 2 in Example 6. Antitumor compound 0611 was formulated as Solution 3 in Example 6. Antitumor compound 0748 was formulated as Solution 4 in Example 6. Other antitumor compounds were formulated similarly. The compounds were prepared in a vehicle of 90% saline, 5% Cremophor, and 5% ethanol.
(§2) Female nu/nu mice (11-12 weeks of age; implanted subcutaneously with 1 mm^3 MX-1 human breast carcinoma fragments in the flank) were sorted into one control group (n=10) and four treatment (n=6) groups (group mean tumor size of 47-49 mg). The study was terminated on Day 63.

HCT116 = assay: In Vitro cytotoxicity measured by the cell colony formation assay; assay type: cell-based, human; settings: Homo sapiens, HCT-116; read-out: IN VITRO ID 50 HCT116
Method in brief: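 Four hundred cells per dish in McCoy's 5a medium with 10% FBS were allowed to attach for 5 h at 37 °C. They were then exposed to compound for 72 h at 37 °C, added as a 10× stock made fresh in medium. After HBSS rinsing and refeeding, colonies were counted after 7 days.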

blood cell populations = assay: Effect of oral treatment on blood cell populations and body weight in the MX-1 study (Example 22); assay type: in vivo, nu/nu mice; settings: mg/kg: 0499 80, 0550 73, 0611 113, 0748 200
Procedure: as §1, §2
In addition to survival and tumor regression responses, the effect of treatment on blood cell populations was assessed. The major effect of these antitumor compounds on blood cell populations was a marked reduction in the neutrophil cell number. As well, monocyte depletion correlated fairly well with neutrophil reduction for each antitumor compound. […] There was a correlation between antitumor activity and reduced neutrophil count. In general, toxicity (as determined by neutrophil depletion) and weight loss correlated with efficacy. […] Importantly, the toxicities observed with the very efficacious antitumor compounds were manageable and reversible; neutrophil count and body weight rebounded from their low points in just a few days. Table 20 summarizes the weight reduction, neutrophil and monocyte measurements on Day 4, with tumor weight reduction calculated at Day 18: Table 20

[2] = number of mice, single oral bolus Day 1, mg/kg: 0499 80, 0550 73, 0611 113, 0748 200, 6 mice/group, Day 63

SMILES	Toxic Deaths (HCT116 carcinoma)	Toxic Deaths (SKMES lung carcinoma)	Complete Response (SKMES lung carcinoma; Day 60)	Partial Response (SKMES lung carcinoma; Day 60)	Stable Disease (SKMES lung carcinoma; Day 60)	Toxic Deaths (MX-1 carcinoma)	Toxic Deaths (A2780 ovarian carcinoma)	antitumor activity ([1]; MX-1, single oral bolus Day 1)	Toxic Deaths ([1]; number of mice, single oral bolus Day 1, mg/kg: 0499 80, 0550 73, 0611 113, 0748 200, 6 mice/group)	Complete Response [1, 2]	Partial Response [1, 2]	Stable Disease [1, 2]	% Reduction (Weight) ([1]; po, 432 h) [%]	IC50 (HCT116) [nM]	% Reduction (Neutrophils) (blood cell populations; Day 4, vs vehicle, single oral bolus) [%]	Monocytes (K/µL) (blood cell populations; Day 4, single oral bolus Day 1)	Neutrophils (K/µL) (blood cell populations; Day 4, single oral bolus Day 1)	Maximum Weight Loss (Day) (blood cell populations; body weight, day of maximum in parentheses in the cell, single oral bolus Day 1)
CCC(=O)O[C@H]1C(=O)[C@@]2(C)[C@H]([C@H](OC(=O)c3ccccc3)[C@]3(O)C[C@H](OC(=O)[C@H](O)[C@@H](NC(=O)c4ccccc4)c4cccs4)C(C)=C1C3(C)C)[C@]1(OC(C)=O)CO[C@@H]1C[C@@H]2O [Compound 0687]	0	1^a	4	1	0	1	0	–	–	–	–	–	–	–	–	–	–	–
CCC(=O)O[C@H]1C(=O)[C@@]2(C)[C@H]([C@H](OC(=O)c3ccccc3)[C@]3(O)C[C@H](OC(=O)[C@H](O)[C@@H](NC(=O)c4ccccc4)c4ccccc4)C(C)=C1C3(C)C)[C@]1(OC(C)=O)CO[C@@H]1C[C@@H]2O [Compound 0748]	–	–	–	–	–	–	–	significant survival extensions compared to vehicle control mice	0	0	0	1	69.1	< 10	70.5	0.117	0.269	-4.6% (5)
